Reference: PMC8765437, “GSK3640254 Is a Novel HIV-1 Maturation Inhibitor with an Optimized Virology Profile” (Antimicrobial Agents and Chemotherapy, 2022)
Like-named read-outs stand apart in the source and are kept apart here.

Experiments:
Assay type in all cases: cell-based
HIV-1 laboratory strains = test: Laboratory strains, reverse transcriptase activity in MT-2 cells; settings: Human immunodeficiency virus 1, NL43, MT2, NL4-3; second value in cell; read-out: EC50 (converted)
Protocol: (§1) Virus yields were measured in dose-response experiments by either luciferase activity in human T-cells (CEM-NKR-CCR5-Luc), extracellular reverse transcriptase activity in MT-2 cells (T-tropic viruses), or extracellular p24 antigen in PM1 cells (M-tropic viruses).
Multiple-cycle assays using recombinant viruses or clinical isolates were used to assess MI antiviral activity as described previously ([10]). pNLRepRlucP373S (the P373S change is in the Gag gene and converts an outlier polymorphism in the NL4-3 gene to the prevalent amino acid in the population) plasmids containing SDMs in Gag or gag/pr regions from clinical isolates were transfected into HEK 293T cells, and the supernatant containing recombinant virus was harvested after 4 to 5 days. Virus was used to infect MT-2 cells in the presence of a 3-fold serially diluted compound at a final dimethyl sulfoxide (DMSO) concentration of 1%. The inocula of the reporter viruses were determined based on the luciferase activity detected on day 4 postinfection. The MOI (ratio of infectious virions to target cells) of reporter-free laboratory strains and clinical isolates was 0.005, as derived from a tissue culture infectious dose study. Clinical isolates or reporter-free viruses were examined in the reporter CEM-NKR-CCR5-Luc cells or PBMCs at MOIs ranging from 0.005 to 0.01. Each infection started with a drug-free preincubation of the cell-virus mixtures, performed at 37°C and 5% CO2 for either 1 h at 2 times the final cell density (reporter viruses) or 1 h (reporter-free laboratory strains) or 3 h (clinical isolates) using cell pellets in 0.5 mL of medium. After preincubation, cell-virus mixtures were added to compound-containing 96-well plates for a final cell density of either 10,000 (MT-2 cells for reporter viruses), 20,000 (MT-2 and PM1 cells for reporter-free laboratory strains), 200,000 (PBMCs for clinical isolates), or 500,000 (CEM-NKR-CCR5-Luc for reporter-free laboratory strains) cells per well. The CEM-NKR-CCR5-Luc cell assay was performed in the presence of Polybrene (10 μg/mL). Virus growth was determined on days 4 to 5 postinfection for reporter variants or days 5 to 11 for the other viruses. The reporter viruses were detected by a luciferase assay according to manufacturer protocols (Brite-Glo luciferase kit [Promega] for CEM-NKR-CCR5-Luc cells and Dual-Luciferase Reporter 1000 assay system [Promega] for the other cells), and luminescence was detected on a Wallac Trilux. The growth of clinical isolates in PBMCs was quantitated by reverse transcriptase activity in a 96-well scintillation proximity assay (SPA). Twenty microliters of culture supernatants was mixed with 40 μL of reaction cocktail (62.5 mM Tris-HCl [pH 7.8], 100 mM KCl, 0.0625% NP-40, 2.5 mM dithiothreitol [DTT], 6.25 mM MgCl2, 1 mM EGTA, 6.25 μg/mL of poly rA, 2.5 μg/mL of streptavidin SPA beads prebound with biotinylated-dT12-18, and 1 μCi of [^3H]TTP). Mixtures were incubated at 37°C for ∼3 h and quenched with 100 μl of 0.25 M EDTA per well. Luminescence was detected on a Wallac Trilux programmed for tritium counting with SPA beads in opaque plates. The growth of the reporter-free laboratory M-tropic strains and clinical isolates was monitored by a p24 enzyme-linked immunosorbent assay (ELISA; PerkinElmer Life Sciences, Waltham, MA) performed on culture supernatants.
(§2) Maximal percent inhibition values were calculated as MPI = 100 – (mean signals at the 2 highest concentrations of compound/mean signal of 2 no-drug control wells) × 100.

HIV-2 strains = test: HIV-2 strains, luciferase activity in CEM-NKR-CCR5-Luc cells
Protocol: as §1
Multiple-cycle assays using recombinant viruses or clinical isolates were used to assess MI antiviral activity as described previously ([10]). pNLRepRlucP373S (the P373S change is in the Gag gene and converts an outlier polymorphism in the NL4-3 gene to the prevalent amino acid in the population) plasmids containing SDMs in Gag or gag/pr regions from clinical isolates were transfected into HEK 293T cells, and the supernatant containing recombinant virus was harvested after 4 to 5 days. Virus was used to infect MT-2 cells in the presence of a 3-fold serially diluted compound at a final dimethyl sulfoxide (DMSO) concentration of 1%. The inocula of the reporter viruses were determined based on the luciferase activity detected on day 4 postinfection. […] Virus growth was determined on days 4 to 5 postinfection for reporter variants or days 5 to 11 for the other viruses. The reporter viruses were detected by a luciferase assay according to manufacturer protocols (Brite-Glo luciferase kit [Promega] for CEM-NKR-CCR5-Luc cells and Dual-Luciferase Reporter 1000 assay system [Promega] for the other cells), and luminescence was detected on a Wallac Trilux. The growth of clinical isolates in PBMCs was quantitated by reverse transcriptase activity in a 96-well scintillation proximity assay (SPA). […] Luminescence was detected on a Wallac Trilux programmed for tritium counting with SPA beads in opaque plates. The growth of the reporter-free laboratory M-tropic strains and clinical isolates was monitored by a p24 enzyme-linked immunosorbent assay (ELISA; PerkinElmer Life Sciences, Waltham, MA) performed on culture supernatants.
as §2

[1] = test system: HIV-1 viruses containing Gag region SDMs; test: Single-cycle infection assay with Gag SDM viruses
Protocol: Single-cycle infection assays were performed as described previously ([10]). Half-maximal effective concentration values were calculated as the compound concentration that inhibits 50% of the maximal signal (no-drug control), correcting for background. Background was determined as the residual signal observed upon inhibition at the highest concentration of a control protease inhibitor, nelfinavir (3 μM). Half-maximal fold change effective concentration versus WT values were calculated by dividing the EC50 of the recombinant virus by the EC50 of WT RepRlucNL4-3 virus run in parallel.

Compound: C=C(C)[C@@H]1CC[C@]2(NCCN3CCS(=O)(=O)CC3)CC[C@]3(C)[C@H](CC[C@@H]4[C@@]5(C)CC=C(C6=CC[C@@](CF)(C(=O)O)CC6)C(C)(C)[C@@H]5CC[C@]43C)[C@@H]12 [GSK’254]
- EC50 (HIV-1 laboratory strains): 7.3 nM
- EC50 (HIV-2 strains; Human immunodeficiency virus 2, HIV-2 287): 1240 nM
- EC50 (HIV-2 strains; Human immunodeficiency virus 2, HIV-2 ROD, first value in cell): > 3000 nM
- MPI ([1]; A364V): 45%
- MPI ([1]; A366V): −7.6%
- MPI ([1]; A366V/V370M): 26%
- MPI ([1]; H358Y/ΔT371): 67%
- EC50 ([1]; Human immunodeficiency virus 1, V362I/V370A): 4 nM
- EC50 ([1]; Human immunodeficiency virus 1, read-out: Mean ± SD EC50, A364V): > 3000 nM
- EC50 ([1]; Human immunodeficiency virus 1, read-out: Mean ± SD EC50, A366V): > 3000 nM
- EC50 ([1]; Human immunodeficiency virus 1, read-out: Mean ± SD EC50, A366V/V370M): > 3000 nM
- EC50 ([1]; Human immunodeficiency virus 1, read-out: Mean ± SD EC50, H358Y/ΔT371): 35 ± 2 nM
- EC50 ([1]; Human immunodeficiency virus 1, read-out: Mean ± SD EC50, I333V/V362I): 39 ± 5 nM
- EC50 ([1]; Human immunodeficiency virus 1, read-out: Mean ± SD EC50, I333V/V370): 11 ± 1 nM
- EC50 ([1]; Human immunodeficiency virus 1, read-out: Mean ± SD EC50, I333V/V370A): 11 ± 1 nM
- EC50 ([1]; Human immunodeficiency virus 1, read-out: Mean ± SD EC50, M367V): 15 ± 10 nM
- EC50 ([1]; Human immunodeficiency virus 1, read-out: Mean ± SD EC50, R361K/V362I/L363M): 14 ± 2 nM
- EC50 ([1]; Human immunodeficiency virus 1, read-out: Mean ± SD EC50, T33N/V370A): 3 nM
- EC50 ([1]; Human immunodeficiency virus 1, read-out: Mean ± SD EC50, T332N/V370A): 4 ± 1 nM
- EC50 ([1]; Human immunodeficiency virus 1, read-out: Mean ± SD EC50, T332S/V362I/prR41G): 13 ± 9 nM
- EC50 ([1]; Human immunodeficiency virus 1, read-out: Mean ± SD EC50, V362I): 3 ± 1 nM
- EC50 ([1]; Human immunodeficiency virus 1, read-out: Mean ± SD EC50, V362I/A366V): > 3000 nM
- EC50 ([1]; Human immunodeficiency virus 1, read-out: Mean ± SD EC50, V362I/A366V/V370M): > 3000 nM
- EC50 ([1]; Human immunodeficiency virus 1, read-out: Mean ± SD EC50, V362I/H219Q): 7 ± 2 nM
- EC50 ([1]; Human immunodeficiency virus 1, read-out: Mean ± SD EC50, V362I/H219Q/T332S): 8 ± 3 nM
- EC50 ([1]; Human immunodeficiency virus 1, read-out: Mean ± SD EC50, V362I/V370A): 4 ± 1 nM
- EC50 ([1]; Human immunodeficiency virus 1, read-out: Mean ± SD EC50, V362I/V370M): 4 ± 2 nM
- EC50 ([1]; Human immunodeficiency virus 1, read-out: Mean ± SD EC50, V370A): 2 ± 1 nM
- EC50 ([1]; Human immunodeficiency virus 1, read-out: Mean ± SD EC50, V370M): 2 ± 1 nM
- EC50 ([1]; Human immunodeficiency virus 1, read-out: Mean ± SD EC50, Wild type): 3 ± 2 nM
- EC50 ([1]; Human immunodeficiency virus 1, read-out: Mean ± SD EC50, ΔV370): 8 nM
- MPI ([1]; I333V/V362I): 65%
- MPI ([1]; I333V/V370): 86%
- MPI ([1]; I333V/V370A): 86%
- MPI ([1]; M367V): 89%
- MPI ([1]; R361K/V362I/L363M): 89%
- MPI ([1]; T33N/V370A): 94%
- MPI ([1]; T332N/V370A): 94%
- MPI ([1]; T332S/V362I/prR41G): 88%
- MPI ([1]; V362I): 89%
- MPI ([1]; V362I/A366V): −96%
- MPI ([1]; V362I/A366V/V370M): 1%
- MPI ([1]; V362I/H219Q): 91%
- MPI ([1]; V362I/H219Q/T332S): 91%
- MPI ([1]; V362I/V370A): 91%
- MPI ([1]; V362I/V370M): 90%
- MPI ([1]; V370A): 97%
- MPI ([1]; V370M): 93%
- MPI ([1]; Wild type): 98%
- MPI ([1]; ΔV370): 96%
